# In ChEMBL document CHEMBL1909582, “Identification of novel NK1/NK3 dual antagonists for the potential treatment of schizophrenia” (Bioorg Med Chem Lett, 2011):
# Experiments:
# [1] = target: T1, Substance-P receptor (Homo sapiens, UniProt P25103); assay: Antagonist activity at human recombinant NK1 receptor expressed in human U20S cells assessed as substance P maximal stimulation at 3 nM by FLIPR assay; type: functional, cell-based; conditions: U2OS
# [2] = target: T2, Neuromedin-K receptor (Homo sapiens, UniProt P29371); assay: Antagonist activity at human recombinant NK3 receptor expressed in human U20S cells assessed as effect on NKB-induced intracellular calcium level by FLIPR assay; type: functional, cell-based, U2OS
# T2 sequence (P29371 whole entry): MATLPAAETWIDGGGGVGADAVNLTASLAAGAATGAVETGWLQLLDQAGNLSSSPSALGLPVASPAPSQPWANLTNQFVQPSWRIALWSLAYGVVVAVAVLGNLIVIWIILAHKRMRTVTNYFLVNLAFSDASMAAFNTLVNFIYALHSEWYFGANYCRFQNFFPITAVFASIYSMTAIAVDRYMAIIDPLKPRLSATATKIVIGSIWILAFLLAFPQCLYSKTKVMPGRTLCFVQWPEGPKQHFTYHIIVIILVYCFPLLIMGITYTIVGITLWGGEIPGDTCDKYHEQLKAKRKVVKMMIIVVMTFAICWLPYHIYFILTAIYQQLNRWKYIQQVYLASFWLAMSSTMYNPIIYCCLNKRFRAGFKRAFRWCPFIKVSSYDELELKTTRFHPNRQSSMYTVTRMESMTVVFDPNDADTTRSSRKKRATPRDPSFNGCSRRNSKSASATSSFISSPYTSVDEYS
# [3] = target: T1, Substance-P receptor; assay: Antagonist activity at human recombinant NK1 receptor expressed in human U20S cells assessed as effect on substance P-induced intracellular calcium level by FLIPR assay; type: functional, cell-based, U2OS
# [4] = target: T1, Substance-P receptor; assay: Antagonist activity at human recombinant NK1 receptor expressed in human U20S cells assessed as substance P maximal stimulation at 1 nM by FLIPR assay; type: functional, cell-based; conditions: U2OS
# [5] = target: T3, Neuromedin-K receptor (Homo sapiens) (UniProt P29371); assay: Antagonist activity at human recombinant NK3 receptor expressed in human U20S cells assessed as neurokinin B maximal stimulation at 100 nM by FLIPR assay; conditions: U2OS
# T3 sequence (whole entry): T2 sequence (P29371 whole entry)
# [6] = target: T3, Neuromedin-K receptor (Homo sapiens); assay: Antagonist activity at human recombinant NK3 receptor expressed in human U20S cells assessed as neurokinin B maximal stimulation at 30 nM by FLIPR assay; conditions: U2OS
# T1 sequence (P25103 whole entry): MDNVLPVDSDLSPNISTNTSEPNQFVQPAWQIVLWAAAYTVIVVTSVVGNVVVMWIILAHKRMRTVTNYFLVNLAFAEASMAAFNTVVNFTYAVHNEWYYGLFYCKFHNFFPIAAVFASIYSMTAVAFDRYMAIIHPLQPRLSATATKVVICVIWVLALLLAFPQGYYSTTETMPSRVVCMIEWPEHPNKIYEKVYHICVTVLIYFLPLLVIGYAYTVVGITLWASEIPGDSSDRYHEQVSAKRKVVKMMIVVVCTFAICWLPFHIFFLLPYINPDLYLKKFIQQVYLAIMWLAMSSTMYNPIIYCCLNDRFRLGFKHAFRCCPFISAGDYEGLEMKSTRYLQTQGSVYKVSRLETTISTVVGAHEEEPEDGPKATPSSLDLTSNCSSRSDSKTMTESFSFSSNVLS
Emax [1] [%],Ki [2] [nM],Ki [3] [nM],Emax [4] [%],Emax [5] [%],Emax [6] [%],Structure (SMILES)
–,7.94,0.251,–,–,–,Cc1cc(F)ccc1-c1cc(C2CNC(=O)C2CO)ncc1N(C)C(=O)C(C)(C)c1cc(C(F)(F)F)cc(C(F)(F)F)c1 (racemic) [listing 1 of 2 here]
63,–,–,109,–,–,Cc1cc(F)ccc1-c1cc(C2CNC(=O)C2CO)ncc1N(C)C(=O)C(C)(C)c1cc(C(F)(F)F)cc(C(F)(F)F)c1 (racemic) [listing 2 of 2 here]
5,1,0.0631,66,56,67,"Cc1cc(F)ccc1-c1cc(C2CN(C)C(=O)C2CO)ncc1N(C)C(=O)C(C)(C)c1cc(C(F)(F)F)cc(C(F)(F)F)c1 (single isomer, unassigned)"
–,25.1,< 0.158,–,–,–,"Cc1cc(F)ccc1-c1cc(C2CC(=O)NC2CO)ncc1N(C)C(=O)C(C)(C)c1cc(C(F)(F)F)cc(C(F)(F)F)c1 (single isomer, unassigned; 21a)"
–,794,< 0.158,–,–,–,"Cc1cc(F)ccc1-c1cc(C2CC(=O)NC2CO)ncc1N(C)C(=O)C(C)(C)c1cc(C(F)(F)F)cc(C(F)(F)F)c1 (single isomer, unassigned; 21b)"
–,2,0.251,–,–,–,"Cc1cc(F)ccc1-c1cc(C2CC(=O)NC2CO)ncc1N(C)C(=O)C(C)(C)c1cc(C(F)(F)F)cc(C(F)(F)F)c1 (single isomer, unassigned; 22a) [listing 1 of 2 here]"
39,–,–,103,76,101,"Cc1cc(F)ccc1-c1cc(C2CC(=O)NC2CO)ncc1N(C)C(=O)C(C)(C)c1cc(C(F)(F)F)cc(C(F)(F)F)c1 (single isomer, unassigned; 22a) [listing 2 of 2 here]"
–,20,0.251,–,–,–,"Cc1cc(F)ccc1-c1cc(C2CC(=O)NC2CO)ncc1N(C)C(=O)C(C)(C)c1cc(C(F)(F)F)cc(C(F)(F)F)c1 (single isomer, unassigned; 22b)"
–,79.4,0.0501,–,–,–,"Cc1cc(F)ccc1-c1cc(C2CNC(=O)C2CO)ncc1N(C)C(=O)C(C)(C)c1cc(C(F)(F)F)cc(C(F)(F)F)c1 (single isomer, unassigned; enantiomer 1) [listing 1 of 2 here]"
19,–,–,103,–,–,"Cc1cc(F)ccc1-c1cc(C2CNC(=O)C2CO)ncc1N(C)C(=O)C(C)(C)c1cc(C(F)(F)F)cc(C(F)(F)F)c1 (single isomer, unassigned; enantiomer 1) [listing 2 of 2 here]"
–,1.58,0.158,–,–,–,"Cc1cc(F)ccc1-c1cc(C2CNC(=O)C2CO)ncc1N(C)C(=O)C(C)(C)c1cc(C(F)(F)F)cc(C(F)(F)F)c1 (single isomer, unassigned; enantiomer 2) [listing 1 of 2 here]"
37,–,–,101,–,–,"Cc1cc(F)ccc1-c1cc(C2CNC(=O)C2CO)ncc1N(C)C(=O)C(C)(C)c1cc(C(F)(F)F)cc(C(F)(F)F)c1 (single isomer, unassigned; enantiomer 2) [listing 2 of 2 here]"

# More lines, now with the values behind:
Structure (SMILES),Emax [1] [%],Ki [2] [nM],Ki [3] [nM],Emax [4] [%],Emax [5] [%],Emax [6] [%]
Cc1cc(F)ccc1-c1cc(C2CNC(=O)C2)ncc1N(C)C(=O)C(C)(C)c1cc(C(F)(F)F)cc(C(F)(F)F)c1 (stereo not drawn),20,31.6,< 0.158,64,–,–
Cc1cc(F)ccc1-c1cc(C2CC(=O)NC2(CO)CO)ncc1N(C)C(=O)C(C)(C)c1cc(C(F)(F)F)cc(C(F)(F)F)c1 (racemic) [listing 1 of 2 here],–,5.01,0.1,–,–,–
Cc1cc(F)ccc1-c1cc(C2CC(=O)NC2(CO)CO)ncc1N(C)C(=O)C(C)(C)c1cc(C(F)(F)F)cc(C(F)(F)F)c1 (racemic) [listing 2 of 2 here],28,–,–,89,–,–
"Cc1cc(F)ccc1-c1cc(C2NC(=O)CC2CO)ncc1N(C)C(=O)C(C)(C)c1cc(C(F)(F)F)cc(C(F)(F)F)c1 (single isomer, unassigned; 8a) [listing 1 of 2 here]",–,39.8,0.0794,–,–,–
"Cc1cc(F)ccc1-c1cc(C2NC(=O)CC2CO)ncc1N(C)C(=O)C(C)(C)c1cc(C(F)(F)F)cc(C(F)(F)F)c1 (single isomer, unassigned; 8a) [listing 2 of 2 here]",25,–,–,64,–,–
"Cc1cc(F)ccc1-c1cc(C2NC(=O)CC2CO)ncc1N(C)C(=O)C(C)(C)c1cc(C(F)(F)F)cc(C(F)(F)F)c1 (single isomer, unassigned; 8b)",–,501,0.501,–,–,–
"Cc1cc(F)ccc1-c1cc(C2NC(=O)CC2CO)ncc1N(C)C(=O)C(C)(C)c1cc(C(F)(F)F)cc(C(F)(F)F)c1 (single isomer, unassigned; 9a) [listing 1 of 2 here]",–,5.01,0.251,–,–,–
"Cc1cc(F)ccc1-c1cc(C2NC(=O)CC2CO)ncc1N(C)C(=O)C(C)(C)c1cc(C(F)(F)F)cc(C(F)(F)F)c1 (single isomer, unassigned; 9a) [listing 2 of 2 here]",60,–,–,98,74,83
"Cc1cc(F)ccc1-c1cc(C2NC(=O)CC2CO)ncc1N(C)C(=O)C(C)(C)c1cc(C(F)(F)F)cc(C(F)(F)F)c1 (single isomer, unassigned; 9b) [listing 1 of 2 here]",–,31.6,0.316,–,–,–
"Cc1cc(F)ccc1-c1cc(C2NC(=O)CC2CO)ncc1N(C)C(=O)C(C)(C)c1cc(C(F)(F)F)cc(C(F)(F)F)c1 (single isomer, unassigned; 9b) [listing 2 of 2 here]",30,–,–,79,–,–
"Cc1cc(F)ccc1-c1cc(C2CC(=O)NC2(CO)CO)ncc1N(C)C(=O)C(C)(C)c1cc(C(F)(F)F)cc(C(F)(F)F)c1 (single isomer, unassigned; enantiomer 1)",–,6.31,< 0.158,–,–,–
"Cc1cc(F)ccc1-c1cc(C2CC(=O)NC2(CO)CO)ncc1N(C)C(=O)C(C)(C)c1cc(C(F)(F)F)cc(C(F)(F)F)c1 (single isomer, unassigned; enantiomer 2)",–,631,< 0.158,–,–,–
